From patent US20070014718A1, “Kits for gastric emptying measurement” (Atomic Energy Council - Institute of Nuclear Energy Research, priority 2005, published 2007)
Like-named read-outs stand apart in the source and are kept apart here.

Tests used:
[1] = In-vitro gastric simulation: isotope tracer retention in solid phase of test meal; type: in vitro ADME; conditions: mimic gastric fluid
Method: After chewing the test meal, it is put into a semi-permeable membrane (Spectra/PorMembrane MWCO 3,500, 54 mm×150 mm) incubated and shook with a simulated gastric juice (2 g (gram) of sodium chloride; 3.2 g of pepsin; and, 7 mL of HCl in 1000 mL, pH 1.2) at 37±2° C. having different time intervals. 5 mL aliquot of the liquid phase were removed at regular 60 min intervals, centrifuged and aliquots of the supernatants removed for C-13 glycine quantification with Liquid Chromatography/Mass Spectrometry.
To assess the extent of Tc-99 m phytate retention in the solid phase of the test meal, a simulated gastric digest is made. A muffin is prepared as described above with 1 mCi of a Tc-99 m phytate, which is equivalent to 156.25 μg (microgram) with a specific activity of 10.06 mCi/μmol (μmol, micromolar) mixed with the dry mix 1 and water. […] 5 mL aliquot of the liquid phase were removed at regular 60 min intervals, centrifuged and aliquots of the supernatants removed for liquid scintillation counting Results are then expressed as a percentage, P %, of the initial amount of a radioactivity added. […]

[2] = Shelf-life / chemical stability on storage; type: physicochemical; conditions: stored at a room temperature
Description: Please refer to FIG. 1 and FIG. 2, which are views showing a kit for a gastric emptying measurement and isotope tracer retention in a solid phase of a test meal, according to the present invention, where isotope tracer retention percentage is obtained in FIG. 2 in vitro gastric digest at pH 2.3 to imitate the gastric condition after administering the test meal. […] A standardized recipe is provided to clinicians in the test meal, which has fixed proportions of carbohydrate, protein, and fat. The raw ingredients in the test meal include a lyophilized egg flour. The characteristic is that the isotope tracer 2 is coagulated with albumin of the egg flour into a solid form at more than 75° C., which means the isotope tracer is well incorporated into a food product. More than 90% of the isotope tracer is retained in a mimic gastric fluid at 35˜39° C. for three hours. […] More than 98% of the Tc-99 m phytate is retained in a mimic gastric fluid at 35˜39° C. for 4 hours. More than 90% of the Tc-99 m DTPA is retained in a mimic gastric fluid at 35˜39° C. for 3 hours The dry mix 1 comprises egg powder (7.4%), all purpose flour (19.6%), glutinous rice powder (3.9%), whole milk powder (35.7%), levulose (fructose) flour (8%), foaming powder (3%), cream powder (22%), cream fragrance powder (0.2%), and salt (0.2%), having a most preferred calorie of about 289.5±12.5 kcal. […]

[3] = for % ^13C (dose/hr): breath, patient X, 50 mg
Method: The test meal is administered after an overnight fast along with 100 mL of water within 10 minutes. The first one of the breath samples is collected before the test meal is administered so that a baseline is obtained. And the rest of the breath samples are collected with an 15-minute intervals during 4 hours after the test meal is administered. A measurement can be conveniently done using an isotope ratio mass spectrometer. The results obtained are then expressed in a δ^13C value (^13C/^12C). […] The ^13CO2 excretion parameters are derived from the chi-square distribution in statistics and the equation is expressed as follows. CD=m(1−e^−kt)^β , where CD is the cumulative percentage of the administered dose; t is the time; and, m is the total cumulative percentage of the dose recovered.
A non-linear regression analysis is performed on the originally measured data to obtain values of the m, k, and β for each individual breath test.
The half emptying time is calculated by making CD equal to m/2 in the CD equation: [formula] B. Lag Phase:
The lag phase for the breath test has been defined, which is expressed as follows: tlag=1/k ln β
The % ^13C dose/hr is calculated by the following equation Eq. 1: [formula] • The definition of mmol ^13C excess in breath (a) and mmol ^13C excess administered (b) were shown below: [formula] • 0.0112372 is the ratio of ^13C/^12C of PDB • % ^13Ct and % ^13Ct0: the concentration of ^13C at time t and t0 (i.e. time zero) • δt=δ^13C value at time t (% ^13Ct−% ^13Ct0) is also called “^13C atom percent excess” [formula] • % ^13Csubstr.=% ^13C present in substrate • M=molar mass of substrate • m=amount of substrate • n=number of atoms, ^13C-labelled • (13) The % ^13C cumulative dose is derived numerically from the % ^13C dose/hr data and is calculated from the following Eq. 2, which informs about the global process. [formula] • n=number of samples per hour • n=4, if a breath sample is taken every 15 minutes • ti=time i
• (14) Mathematically analyzing the ^13CO2 excretion curves with a Sigma plot software. […] All of these parameters were determined by a non-linear regression analysis. The half emptying time is calculated by making CD equal to m/2 in the CD equation and being defined by [formula] • . […] The lag phase for the breath test is expressed as tlag=1/k ln β (Eq. 4).

For `O=C([O-])CN(CCN(CC(=O)[O-])CC(=O)[O-])CCN(CC(=O)[O-])CC(=O)[O-].[99Tc+4]` [Tc-99 m DTPA, Tc-99 m DTPA (diethyl-triamine-pentaacetic acid)], the “isotope tracer retained (incorporated) in the test meal” value ([1]; 35˜39° C. (37±2° C.), 4 hours) was “more than 87%” and the “isotope tracer retained in the test meal” value ([1]; 35˜39° C., 3 hours) was “More than 90%”.

For `NC[13C](=O)O` [^13C glycine], the shelf-life [2] was “more than 5 year”, the “% ^13C (dose/hr)” value ([3]; sampling time 15 min) was 1.104 % ^13C dose/hr and the “% ^13C (dose/hr)” value ([3]; sampling time 30 min) was 2.802 % ^13C dose/hr. For the same molecule, the “% ^13C (dose/hr)” value ([3]; sampling time 45 min) was 3.905 % ^13C dose/hr, the “% ^13C (dose/hr)” value ([3]; sampling time 60 min) was 4.754 % ^13C dose/hr and the “% ^13C (dose/hr)” value ([3]; sampling time 75 min) was 5.603 % ^13C dose/hr. The “% ^13C (dose/hr)” value ([3]; sampling time 90 min) was 5.093 % ^13C dose/hr, the “% ^13C (dose/hr)” value ([3]; sampling time 105 min) was 5.857 % ^13C dose/hr and the “% ^13C (dose/hr)” value ([3]; sampling time 120 min) was 6.027 % ^13C dose/hr. The “% ^13C (dose/hr)” value ([3]; sampling time 135 min) was 6.706 % ^13C dose/hr, the “% ^13C (dose/hr)” value ([3]; sampling time 150 min) was 5.857 % ^13C dose/hr and the “% ^13C (dose/hr)” value ([3]; sampling time 165 min) was 5.263 % ^13C dose/hr. For the same molecule, the “% ^13C (dose/hr)” value ([3]; sampling time 180 min) was 4.414 % ^13C dose/hr, the “% ^13C (dose/hr)” value ([3]; sampling time 195 min) was 3.65 % ^13C dose/hr and the “% ^13C (dose/hr)” value ([3]; sampling time 210 min) was 3.65 % ^13C dose/hr. The “% ^13C (dose/hr)” value ([3]; sampling time 225 min) was 3.056 % ^13C dose/hr, the “% ^13C (dose/hr)” value ([3]; sampling time 240 min) was 2.547 % ^13C dose/hr and the k ([3]; human, in vivo) was 0.0101. For the same molecule, the “m (total cumulative percentage of the dose recovered)” value ([3]; human, in vivo) was 22.844 and the β ([3]; human, in vivo) was 2.8256.
